Source: patent publication US11066412B2, “Substituted pyrrolo[2,1-a]phthalazines and benzo[g]pyrrolo[2,1-a]phthalazines for the treatment of cancer” (Academia Sinica, priority 2017, dated 2021)
Read-outs that look alike come from different tables or passages of the source.

Columns and labels:
[1] = tested on: human lymphoblastic leukemia cell line (CCRF-CEM); experiment: in vitro cytotoxicity, PrestoBlue assay; type: cell-based; conditions: read-out: IC50 CCRF-CEM
Procedure: (§1) All representative compounds of Formulae (I-A) and (I-B) were first evaluated for their in vitro cytotoxicity to human lymphoblastic leukemia cell line (CCRF-CEM) and its vinblastine-resistant sub-cell line (CCRF-CEM/VBL) (see Table 1).
(§2) After a 72-hr incubation in various concentrations of the newly synthesized compounds, the cytotoxic effects of them to all cell lines were determined by the PrestoBlue®(Invitrogen) assay using a microplate spectrophotometer. Briefly, at the end of treatment, an aliquot of PrestoBlue® solution was added and then cells were incubated at 37° C. for 1-2 hr. The absorbance at 570 and 600 nm was measured with a microplate reader. […] The ICso is defined by the concentration required to inhibit tumor cell growth by 50%. Data represent the mean±STDEV of three to six independent experiments for each compound.

[2] = tested on: colon cancer HCT-116; experiment: in vitro cytotoxicity, PrestoBlue assay; type: cell-based, human; conditions: Table 2
Procedure: as §1, §2

[3] = tested on: non-small cell lung cancer H460; experiment: in vitro cytotoxicity, PrestoBlue assay; type: cell-based, human; conditions: Table 2
Procedure: as §1, §2

[4] = tested on: pancreatic cancer PacaS1; experiment: in vitro cytotoxicity, PrestoBlue assay; type: cell-based, human; conditions: Table 2
Procedure: as §1, §2

[5] = tested on: vinblastine-resistant sub-cell line (CCRF-CEM/VBL); experiment: in vitro cytotoxicity, PrestoBlue assay; type: cell-based, human; conditions: for IC50: read-out: IC50 CEM/VBL; for resistance factor (IC50 CEM/VBL vs IC50 of the parent cell line): number in brackets
Procedure: as §1, §2

[6] = tested on: small cell lung cancer H526; experiment: in vitro cytotoxicity, PrestoBlue assay; type: cell-based, human
[7] = tested on: pEGFP-N1 plasmid DNA; experiment: DNA cross-linking, alkaline agarose gel electrophoresis; type: biochemical; conditions: 1-20 μM, 37° C., 2 hrs; FIG. 1
Procedure: In the present example, BO-2590, BO-2577 (Formula I-A) and BO-2698, BO-2755, BO-2762 and BO-2768 (Formula I-B) were tested for their DNA crosslinking activity, in which the cross-linking was analyzed by alkaline agarose gel electrophoresis. In brief, purified pEGFP-N1 plasmid DNA (1,500 ng) was mixed with various concentrations (1-20 μM) of the tested compounds in 40 μL binding buffer (3 mM sodium chloride/1 mM sodium phosphate, pH 7.4, and 1 mM EDTA). The reaction mixture was incubated at 37° C. for 2 hrs. At the end of reaction, the plasmid DNA was linearized by digestion with BamHI and followed by precipitation with ethanol. The DNA pellets were dissolved and denatured in alkaline buffer (0.5 N NaOH-10mM EDTA). An aliquot of 20 μL of DNA solution (1,000 ng) was mixed with 4 μL of 6× alkaline loading dye and then electrophoretically resolved on a 0.8% alkaline agarose gel with NaOH-EDTA buffer at 4° C. The electrophoresis was carried out at 18V for 22 h. After staining the gels with an ethidium bromide solution, the DNA was visualized under UV light. Results are illustrated in FIG. 1.

[8] = molecular target: T1, VEGFR-2 (Homo sapiens, UniProt P35968); experiment: VEGFR-2 activation, western blotting in EA.hy926 cells; type: cell-based; conditions: EA.hy926 cells, 12 hr; FIG. 3
T1 construct: endogenous in cells; host or cells: EA.hy926 endothelial cells
Procedure: In the present example, BO-2590 and BO-2577 were subject to the test of their activity in suppressing VEGFR-2 by western blotting analysis. Briefly, the endothelial EA.hy926 cells were incubated with BO-2590 or BO-2577 at various concentrations for 12 hr. The primary antibodies, anti-VEGFR-2 and anti-p-VEGFR-2, were used to blot the proteins of total VEGFR-2 and p-VEGFR-2, respectively. Results are illustrated in FIG. 3.

[9] = tested on: H1417; experiment: in vitro cytotoxicity to SCLC cells; type: cell-based, human; conditions: Table 3
Procedure: as §2

[10] = tested on: H146; experiment: in vitro cytotoxicity to SCLC cells; type: cell-based, human; conditions: Table 3
Procedure: as §2

[11] = tested on: H211; experiment: in vitro cytotoxicity to SCLC cells; type: cell-based, human; conditions: Table 3
Procedure: as §2

[12] = tested on: H82; experiment: in vitro cytotoxicity to SCLC cells; type: cell-based, human; conditions: Table 3
Procedure: as §2

[13] = tested on: human SCLC H526 xenografts; experiment: tumor growth in xenograft-bearing nude mice; type: in vivo; conditions: micelle formulation (Kolliphor/TWEEN 80/PEG400/ethanol/D5W); BO-2768 at 20 mg/kg twice daily; FIG. 12, panel A
Procedure: Athymic nude mice bearing the nu/nu gene were obtained from the National Laboratory Animal Center (Taipei, Taiwan). Male nude mice (6 weeks or older weighing 20-24 g or more) were used for all human tumor xenografts. The tested compounds were intravenously administered through tail vein. Tumor volume was determined by measuring the length x width x height (or width) with calipers. […] For tumor-bearing nude mice during the course of the experiment, the % body weight changes refer to: (the total weight on reading day/the total weight on day treatment started)×100.
In all experiments, the tumor cells were subcutaneously implanted in nude mice, and the BO-2590L was administered via tail vein when the tumor size reaching approximate 100 mm^3. […]
To confirm the therapeutic activity of BO-2590L, comparative experiments carried out by known chemotherapeutic agents, such as vatanalib and cisplatin, were also performed. Briefly, the H526 xenograft-bearing mice were divided into 4 groups which were treated with vehicle, BO-2590L (10 mg/kg, QD×9), vatalanib (100 mg/kg, QD×9), and cisplatin (4 mg/kg, Q2D×3), respectively. Results are illustrated in FIG. 11.
Results are illustrated in FIGS. 12 and 13.

[14] = body weight changes of xenograft-bearing nude mice; type: in vivo; conditions: H526 xenograft mice, micelle formulation; FIG. 12, panel B
Procedure: Athymic nude mice bearing the nu/nu gene were obtained from the National Laboratory Animal Center (Taipei, Taiwan). Male nude mice (6 weeks or older weighing 20-24 g or more) were used for all human tumor xenografts. The tested compounds were intravenously administered through tail vein. Tumor volume was determined by measuring the length x width x height (or width) with calipers. The vehicle used for the tested compounds was normal saline (0.9% NaCl isotonic solution). For tumor-bearing nude mice during the course of the experiment, the % body weight changes refer to: (the total weight on reading day/the total weight on day treatment started)×100.

[15] = Homo sapiens, CCRF-CEM, 72-hr incubation, mean ± STDEV of three to six experiments
[16] = 72-hr incubation, mean ± STDEV of three to six experiments

T1 sequence (P35968 20-1356): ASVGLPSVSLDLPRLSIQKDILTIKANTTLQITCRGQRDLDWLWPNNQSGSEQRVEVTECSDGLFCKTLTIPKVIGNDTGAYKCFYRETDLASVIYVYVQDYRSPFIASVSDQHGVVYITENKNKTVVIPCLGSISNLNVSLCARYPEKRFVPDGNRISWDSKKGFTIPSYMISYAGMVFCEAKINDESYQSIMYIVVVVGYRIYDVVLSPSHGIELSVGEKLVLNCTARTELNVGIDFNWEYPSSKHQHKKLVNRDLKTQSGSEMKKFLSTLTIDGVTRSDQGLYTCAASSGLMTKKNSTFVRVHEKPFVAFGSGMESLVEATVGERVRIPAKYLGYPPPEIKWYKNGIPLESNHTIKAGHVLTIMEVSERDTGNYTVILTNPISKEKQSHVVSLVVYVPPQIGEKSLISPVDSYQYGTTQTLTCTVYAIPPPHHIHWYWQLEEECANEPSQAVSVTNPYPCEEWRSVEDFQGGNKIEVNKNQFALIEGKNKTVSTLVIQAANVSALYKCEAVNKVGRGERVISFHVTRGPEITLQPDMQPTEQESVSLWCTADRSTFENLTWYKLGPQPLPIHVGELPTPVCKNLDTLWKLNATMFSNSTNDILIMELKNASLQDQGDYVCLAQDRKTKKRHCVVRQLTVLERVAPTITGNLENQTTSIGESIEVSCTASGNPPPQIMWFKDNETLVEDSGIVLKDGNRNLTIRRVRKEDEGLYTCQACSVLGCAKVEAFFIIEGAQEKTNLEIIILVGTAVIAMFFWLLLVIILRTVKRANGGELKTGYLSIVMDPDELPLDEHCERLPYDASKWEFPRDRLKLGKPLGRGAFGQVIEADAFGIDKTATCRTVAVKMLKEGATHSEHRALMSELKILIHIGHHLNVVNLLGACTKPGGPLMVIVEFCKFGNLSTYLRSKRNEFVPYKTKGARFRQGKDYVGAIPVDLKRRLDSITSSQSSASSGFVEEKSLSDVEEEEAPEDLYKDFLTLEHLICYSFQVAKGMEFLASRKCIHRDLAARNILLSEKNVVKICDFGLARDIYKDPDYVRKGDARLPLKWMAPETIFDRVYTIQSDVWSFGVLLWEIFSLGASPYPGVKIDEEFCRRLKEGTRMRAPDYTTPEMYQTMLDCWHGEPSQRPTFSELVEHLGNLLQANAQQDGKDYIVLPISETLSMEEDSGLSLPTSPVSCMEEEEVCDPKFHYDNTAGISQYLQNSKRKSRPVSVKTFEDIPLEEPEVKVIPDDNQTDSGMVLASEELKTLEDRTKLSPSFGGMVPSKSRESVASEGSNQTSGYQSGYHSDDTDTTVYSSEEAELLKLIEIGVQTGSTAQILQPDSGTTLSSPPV

| Structure (SMILES) | IC50 ([2]; Homo sapiens, HCT-116) [µM] | IC50 ([3]; Homo sapiens, NCI-H460) [µM] | IC50 Paca SI [4] [µM] | resistance factor (IC50 CEM/VBL vs IC50 of the parent cell line) [5] [×] | formation of DNA interstrand crosslinks [7] | melting point [°C] | IC50 ([1]; Homo sapiens, CCRF-CEM, 72 h) [nM] | IC50 ([5]; Homo sapiens, CCRF-CEM, 72 h) [nM] | IC50 [1, 16] [nM] | IC50 [5, 16] [nM] | IC50 ([6]; Table 3, read-out: IC50 H526) [nM] | IC50 [9] [nM] | IC50 [10] [nM] | IC50 [11] [nM] | IC50 [12] [nM] | tumor size [13] | deleterious effects on the bodyweight of the test animals [14] | other results |
| --- | --- | --- | --- | --- | --- | --- | --- | --- | --- | --- | --- | --- | --- | --- | --- | --- | --- | --- |
| CCc1c(CO)c(CO)c2c3ccccc3c(N3CCOCC3)nn12 [BO-2577, (3-Ethyl-6-morpholinopyrrolo[2,1-a]phthalazine-1,2-diyl)-dimethanol] | 11.5 ± 1.66 | 18.57 ± 0.18 | 13.02 ± 0.93 | 0.84 | induced DNA interstrand crosslinks | 180 to 182 |  |  |  |  |  |  |  |  |  |  |  | IC50 [1, 15]: 3040 ± 380 nM; IC50 [5, 15]: 2550 ± 120 nM; IC50 ([6]; Homo sapiens, NCI-H526, Table 2, read-out: IC50 H526): 750 ± 120 nM; p-VEGFR-2 protein levels [8]: marked suppression in p-VEGFR-2 protein levels; total protein levels of VEGFR-2 [8]: did not significantly change the total protein levels of VEGFR-2 |
| Cc1c(CO)c(CO)c2c3ccccc3c(N3CCCC3)nn12 [BO-2686, (3-Methyl-6-(pyrrolidin-1-yl)pyrrolo[2,1-a]phthalazine-1,2 diyl)dimethanol] | 3.96 ± 0.06 | 3.87 ± 0.73 | 11.73 ± 1.16 | 0.51 |  | 160 to 162 | 920 ± 70 | 470 ± 50 |  |  |  |  |  |  |  |  |  | IC50 ([6]; Homo sapiens, NCI-H526, read-out: IC50 H526): 300 ± 40 nM |
| CCNC(=O)OCc1c(COC(=O)NCC)c2c3ccccc3c(N3CCCC3)nn2c1C [BO-2716, (3-Methyl-6-(pyrrolidin-1-yl)pyrrolo[2,1-a]phthalazine-1,2-diyl)-bis(methylene) bis(ethylcarbamate)] |  |  |  | 1.47 |  | 140 to 142 | 1420 ± 90 | 2100 ± 90 |  |  |  |  |  |  |  |  |  |  |
| Cc1c(CO)c(CO)c2c3cc4ccccc4cc3c(N3CCCC3)nn12 [BO-2762, (3-Methyl-6-(pyrrolidin-1-yl)benzo[g]pyrrolo[2,1-α]phthalazine-1,2-diyl)dimethanol] |  |  | 1.04 ± 0.08 | 0.74 | induced DNA interstrand crosslinks |  |  |  | 190 ± 10 | 140 ± 20 | 30 ± 10 | 600 ± 340 | 1010 ± 240 | 200 ± 120 | 410 ± 150 |  |  | IC50 [2]: 0.93 ± 0.12 µM; IC50 [3]: 0.78 ± 0.24 µM; IC50 ([6]; Table 2, read-out: IC50 H526): 50 ± 10 nM |
| Cc1c(CO)c(CO)c2c3cc4ccccc4cc3c(N3CCC(N4CCCCC4)CC3)nn12 [BO-2792] |  |  |  | 1.51 |  |  |  |  | 17 ± 9 | 25 ± 5 | 3 ± 3 | 250 ± 50 | 200 ± 150 | 20 ± 20 | 40 ± 10 | as effective as irinotecan and cisplatin in reducing the tumor size | none |  |
| CCc1c2c(nc3ccc(OC(=O)N4CCC(N5CCCCC5)CC4)cc13)-c1cc3c(c(=O)n1C2)COC(=O)[C@]3(O)CC [Irinotecan, reference compound] |  |  |  |  |  |  |  |  |  |  |  |  |  |  |  | slowly increased in size | none | IC50 ([6]; Homo sapiens, NCI-H526, Table 3, read-out: IC50 H526): 590 ± 300 nM; IC50 ([9]; Homo sapiens, NCI-H1417): 9790 ± 840 nM; IC50 ([10]; Homo sapiens, NCI-H146): 11500 ± 6530 nM; IC50 ([11]; Homo sapiens, NCI-H211): 8810 ± 460 nM; IC50 ([12]; Homo sapiens, NCI-H82): 2260 ± 10 nM |
